Results from ChEMBL document CHEMBL3046749, “Synthesis and antimicrobial activity of novel bis-azaphenothiazines” (2013).
Values after ≈ are worked out from the molar mass of the structure shown. Active and inactive are the calls of the source. The rule behind the calls is not given here.

What was measured:
Format in all cases: functional
Salmonella typhi [1] = test: Antibacterial activity against Salmonella enterica subsp. enterica serovar Typhi MTCC 733 at 100 ug/ml after 16 to 18 hr by cup-plate method; conditions: read-out: IZ
Klebsiella pneumoniae [2] = test: Antibacterial activity against Klebsiella pneumoniae MTCC 432 after 16 hr by cup-plate method; conditions: MTCC 432, 16 h
[3] = test system: Staphylococcus epidermidis; test: Antibacterial activity against Staphylococcus epidermidis MTCC 435 at 100 ug/ml after 16 to 18 hr by cup-plate method; conditions: read-out: IZ
Staphylococcus aureus [4] = test: Antibacterial activity against Staphylococcus aureus MTCC 096 after 16 hr by cup-plate method; conditions: MTCC 096, 16 h
Klebsiella pneumoniae [5] = test: Antibacterial activity against Klebsiella pneumoniae MTCC 432 at 100 ug/ml after 16 to 18 hr by cup-plate method; conditions: read-out: IZ
Bacillus subtilis [6] = test: Antibacterial activity against Bacillus subtilis MTCC 441 after 16 hr by cup-plate method; conditions: MTCC 441, 16 h
Salmonella typhi [7] = test: Antibacterial activity against Salmonella enterica subsp. enterica serovar Typhi MTCC 733 after 16 hr by cup-plate method; conditions: MTCC 733, 16 h
[8] = test system: Staphylococcus epidermidis; test: Antibacterial activity against Staphylococcus epidermidis MTCC 435 after 16 hr by cup-plate method; conditions: MTCC 435, 16 h
Escherichia coli [9] = test: Antibacterial activity against Escherichia coli MTCC 443 after 16 hr by cup-plate method; conditions: MTCC 443, 16 h
Pseudomonas aeruginosa [10] = test: Antibacterial activity against Pseudomonas aeruginosa MTCC 424 after 16 hr by cup-plate method; conditions: MTCC 424, 16 h
Pseudomonas aeruginosa [11] = test: Antibacterial activity against Pseudomonas aeruginosa MTCC 424 at 100 ug/ml after 16 to 18 hr by cup-plate method; conditions: read-out: IZ
Staphylococcus aureus [12] = test: Antibacterial activity against Staphylococcus aureus MTCC 096 at 100 ug/ml after 16 to 18 hr by cup-plate method; conditions: read-out: IZ
Bacillus subtilis [13] = test: Antibacterial activity against Bacillus subtilis MTCC 441 at 100 ug/ml after 16 to 18 hr by cup-plate method; conditions: read-out: IZ
Aspergillus fumigatus [14] = test: Antifungal activity against Aspergillus fumigatus MTCC 343 after 28 to 30 hr by cup-plate method
Aspergillus niger [15] = test: Antifungal activity against Aspergillus niger MTCC 282 at 100 ug/ml after 28 to 30 hr by cup-plate method; conditions: for zone of inhibition at 100 µg/mL: read-out: IZ
Escherichia coli [16] = test: Antibacterial activity against Escherichia coli MTCC 443 at 100 ug/ml after 16 to 18 hr by cup-plate method; conditions: read-out: IZ
Aspergillus flavus [17] = test: Antifungal activity against Aspergillus flavus MTCC 277 at 100 ug/ml after 28 to 30 hr by cup-plate method; conditions: for zone of inhibition at 100 µg/mL: read-out: IZ
Candida albicans [18] = test: Antifungal activity against Candida albicans MTCC 227 at 100 ug/ml after 28 to 30 hr by cup-plate method; conditions: for zone of inhibition at 100 µg/mL: read-out: IZ
Aspergillus niger [19] = test: Antifungal activity against Aspergillus niger MTCC 282 after 28 to 30 hr by cup-plate method
Candida albicans [20] = test: Antifungal activity against Candida albicans MTCC 227 after 28 to 30 hr by cup-plate method
Aspergillus flavus [21] = test: Antifungal activity against Aspergillus flavus MTCC 277 after 28 to 30 hr by cup-plate method
Aspergillus fumigatus [22] = test: Antifungal activity against Aspergillus fumigatus MTCC 343 at 100 ug/ml after 28 to 30 hr by cup-plate method; conditions: for zone of inhibition at 100 µg/mL: read-out: IZ

O=C(O)c1cn(C2CC2)c2cc(N3CCNCC3)c(F)cc2c1=O [CIPROFLOXACIN]
zone of inhibition at 100 µg/mL (Salmonella typhi [1]): 19 mm | MIC (Klebsiella pneumoniae [2]): 6.25 µg/mL (≈ 18.9 µM) | zone of inhibition at 100 µg/mL [3]: 16 mm | MIC (Staphylococcus aureus [4]): 6.25 µg/mL (≈ 18.9 µM) | zone of inhibition at 100 µg/mL (Klebsiella pneumoniae [5]): 17 mm | MIC (Bacillus subtilis [6]): 6.25 µg/mL (≈ 18.9 µM) | MIC (Salmonella typhi [7]): 6.25 mM (≈ 2070 µg/mL) | MIC [8]: 6.25 µg/mL (≈ 18.9 µM) | MIC (Escherichia coli [9]): 6.25 µg/mL (≈ 18.9 µM) | MIC (Pseudomonas aeruginosa [10]): 6.25 µg/mL (≈ 18.9 µM) | zone of inhibition at 100 µg/mL (Pseudomonas aeruginosa [11]): 18 mm | zone of inhibition at 100 µg/mL (Staphylococcus aureus [12]): 19 mm | zone of inhibition at 100 µg/mL (Bacillus subtilis [13]): 18 mm

c1ccc2c(c1)Sc1cccnc1N2CCCCCCN1c2ccccc2Sc2cccnc21
zone of inhibition at 100 µg/mL (Salmonella typhi [1]): 12 mm | MIC (Aspergillus fumigatus [14]): > 50 µg/mL | MIC (Klebsiella pneumoniae [2]): 25 µg/mL (≈ 51.8 µM) | zone of inhibition at 100 µg/mL [3]: 13 mm | zone of inhibition at 100 µg/mL (Aspergillus niger [15]): 11 mm | MIC (Staphylococcus aureus [4]): 6.25 µg/mL (≈ 12.9 µM) | zone of inhibition at 100 µg/mL (Klebsiella pneumoniae [5]): 12 mm | MIC (Bacillus subtilis [6]): 25 µg/mL (≈ 51.8 µM) | zone of inhibition at 100 µg/mL (Escherichia coli [16]): 12 mm | zone of inhibition at 100 µg/mL (Aspergillus flavus [17]): 12 mm | zone of inhibition at 100 µg/mL (Candida albicans [18]): 12 mm | MIC (Aspergillus niger [19]): 25 µg/mL (≈ 51.8 µM) | MIC (Candida albicans [20]): 12.5 µg/mL (≈ 25.9 µM) | MIC [8]: 6.25 µg/mL (≈ 12.9 µM) | MIC (Escherichia coli [9]): 12.5 µg/mL (≈ 25.9 µM) | MIC (Pseudomonas aeruginosa [10]): 50 µg/mL (≈ 104 µM) | zone of inhibition at 100 µg/mL (Pseudomonas aeruginosa [11]): 11 mm | MIC (Aspergillus flavus [21]): 25 µg/mL (≈ 51.8 µM) | zone of inhibition at 100 µg/mL (Staphylococcus aureus [12]): 13 mm | zone of inhibition at 100 µg/mL (Bacillus subtilis [13]): 12 mm | zone of inhibition at 100 µg/mL (Aspergillus fumigatus [22]): 10 mm

Brc1ccc2c(c1)Sc1cccnc1N2CCCCCCN1c2ccc(Br)cc2Sc2cccnc21
zone of inhibition at 100 µg/mL (Salmonella typhi [1]): 11 mm | MIC (Aspergillus fumigatus [14]): 25 µg/mL (≈ 39 µM) | MIC (Klebsiella pneumoniae [2]): 25 µg/mL (≈ 39 µM) | zone of inhibition at 100 µg/mL [3]: 14 mm | zone of inhibition at 100 µg/mL (Aspergillus niger [15]): 11 mm | MIC (Staphylococcus aureus [4]): 25 µg/mL (≈ 39 µM) | zone of inhibition at 100 µg/mL (Klebsiella pneumoniae [5]): 12 mm | MIC (Bacillus subtilis [6]): 12.5 µg/mL (≈ 19.5 µM) | zone of inhibition at 100 µg/mL (Escherichia coli [16]): 12 mm | zone of inhibition at 100 µg/mL (Aspergillus flavus [17]): 12 mm | zone of inhibition at 100 µg/mL (Candida albicans [18]): 11 mm | MIC (Aspergillus niger [19]): > 50 µg/mL | MIC (Candida albicans [20]): 25 µg/mL (≈ 39 µM) | MIC [8]: 6.25 µg/mL (≈ 9.76 µM) | MIC (Escherichia coli [9]): 6.25 µg/mL (≈ 9.76 µM) | MIC (Pseudomonas aeruginosa [10]): 6.25 µg/mL (≈ 9.76 µM) | zone of inhibition at 100 µg/mL (Pseudomonas aeruginosa [11]): 13 mm | MIC (Aspergillus flavus [21]): 12.5 µg/mL (≈ 19.5 µM) | zone of inhibition at 100 µg/mL (Staphylococcus aureus [12]): 12 mm | zone of inhibition at 100 µg/mL (Bacillus subtilis [13]): 13 mm | zone of inhibition at 100 µg/mL (Aspergillus fumigatus [22]): 11 mm

c1ccc2c(c1)Sc1cccnc1N2CCCCN1c2ccccc2Sc2cccnc21
zone of inhibition at 100 µg/mL (Salmonella typhi [1]): 12 mm | MIC (Aspergillus fumigatus [14]): > 50 µg/mL | MIC (Klebsiella pneumoniae [2]): 25 µg/mL (≈ 55 µM) | zone of inhibition at 100 µg/mL [3]: 12 mm | inhibition zone (IZ) (Aspergillus niger [15]): inactive | MIC (Staphylococcus aureus [4]): 50 µg/mL (≈ 110 µM) | zone of inhibition at 100 µg/mL (Klebsiella pneumoniae [5]): 12 mm | MIC (Bacillus subtilis [6]): > 50 µg/mL | zone of inhibition at 100 µg/mL (Escherichia coli [16]): 11 mm | inhibition zone (IZ) (Aspergillus flavus [17]): inactive | inhibition zone (IZ) (Candida albicans [18]): inactive | MIC (Aspergillus niger [19]): > 50 µg/mL | MIC (Candida albicans [20]): > 50 µg/mL | MIC [8]: 12.5 µg/mL (≈ 27.5 µM) | MIC (Escherichia coli [9]): > 50 µg/mL | MIC (Pseudomonas aeruginosa [10]): 6.25 µg/mL (≈ 13.7 µM) | zone of inhibition at 100 µg/mL (Pseudomonas aeruginosa [11]): 13 mm | MIC (Aspergillus flavus [21]): > 50 µg/mL | zone of inhibition at 100 µg/mL (Staphylococcus aureus [12]): 11 mm | zone of inhibition at 100 µg/mL (Bacillus subtilis [13]): 10 mm | inhibition zone (IZ) (Aspergillus fumigatus [22]): inactive
